Laboratory results from PubChem BioAssay AID328 (DTP/NCI, 2004).
“And” between values parts separate entries of the source, which are not always exact repeats. Equal values may be shown once. Toxic doses and inconclusive results are not listed. Residues, ends and D or L forms follow the SMILES beside them. *: point of attachment. Cbz = O=C(OCc1ccccc1)*; OBn = c1ccc(CO*)cc1; Bn = c1ccc(C*)cc1

System: BDF1 mice, P388 leukemia ip, median survival T/C
Experiment: NCI In Vivo Anticancer Drug Screen. Data for tumor model P388 Leukemia (intraperitoneal) in B6D2F1 (BDF1) mice
Details: endpoint: median survival time, higher = longer survival
Outline: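 Each value expresses how treatment altered survival: treated-mouse outcome over vehicle-mouse outcome, both groups bearing the transplanted tumour.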

[1] = dose: 12.5 mg/kg/injection, schedule: Q01DX009 (ip), vehicle: saline with Tween-80
[2] = dose: 25.0 mg/kg/injection, schedule: Q01DX009 (ip), vehicle: saline with Tween-80
[3] = dose: 50.0 mg/kg/injection, schedule: Q01DX009 (ip), vehicle: saline with Tween-80
[4] = dose: 100.0 mg/kg/injection, schedule: Q01DX009 (ip), vehicle: saline with Tween-80
[5] = dose: 200.0 mg/kg/injection, schedule: Q01DX009 (ip), vehicle: saline with Tween-80
[6] = dose: 100.0 mg/kg/injection, schedule: Q04DX003 (ip), vehicle: saline with Tween-80
[7] = dose: 200.0 mg/kg/injection, schedule: Q04DX003 (ip), vehicle: saline with Tween-80
[8] = dose: 50.0 mg/kg/injection, schedule: Q01DX005 (ip), vehicle: saline with Tween-80
[9] = dose: 100.0 mg/kg/injection, schedule: Q01DX009 (ip), vehicle: Klucel (hydroxypropylcellulose) (HPC)
[10] = dose: 100.0 mg/kg/injection, schedule: Q04DX003 (ip), vehicle: Klucel (hydroxypropylcellulose) (HPC)
[11] = dose: 200.0 mg/kg/injection, schedule: Q01DX009 (ip), vehicle: Klucel (hydroxypropylcellulose) (HPC)
[12] = dose: 200.0 mg/kg/injection, schedule: Q04DX003 (ip), vehicle: Klucel (hydroxypropylcellulose) (HPC)
[13] = dose: 400.0 mg/kg/injection, schedule: Q01DX009 (ip), vehicle: Klucel (hydroxypropylcellulose) (HPC)
[14] = dose: 400.0 mg/kg/injection, schedule: Q04DX003 (ip), vehicle: Klucel (hydroxypropylcellulose) (HPC)

Clc1ccc(CBr)c2ccccc12
T/C [1]: 108 % of control
T/C [2]: 106 % of control
T/C [3]: 110 % of control

O=c1nc(Oc2ccccc2)nc2ccccn12
T/C [3]: 105 % of control
T/C [4]: 97 % of control
T/C [5]: 102 % of control

COCC(O)CCl (stereo unspecified)
T/C (dose: 50.0 mg/kg/injection, schedule: Q04DX003 (ip), vehicle: saline with Tween-80): 100 % of control
T/C [6]: 100 % of control and 110 % of control
T/C [7]: 100 % of control and 110 % of control

O=C(Nc1ccc(C2=NCCN2)cc1)Nc1cccc(NC(=O)Nc2ccc(C3=NCCN3)cc2)c1
T/C (dose: 60.0 mg/kg/injection, schedule: Q01DX010 (ip), vehicle: saline): 185 % of control and 190 % of control
T/C (dose: 120.0 mg/kg/injection, schedule: Q01DX010 (ip), vehicle: saline): 185 % of control
T/C (dose: 240.0 mg/kg/injection, schedule: Q01DX010 (ip), vehicle: saline): 245 % of control and 220 % of control
T/C (dose: 480.0 mg/kg/injection, schedule: Q01DX010 (ip), vehicle: saline): 120 % of control

O=[N+]([O-])c1cccc2c[n+](Cc3ccccc3)ccc12
T/C [1]: 117 % of control

O=C1C=C(Cl)C(=O)C2=C1CCCC2
T/C (dose: 0.39 mg/kg/injection, schedule: Q04DX002 (ip), vehicle: saline): 92 % of control
T/C (dose: 0.78 mg/kg/injection, schedule: Q04DX002 (ip), vehicle: saline): 97 % of control
T/C (dose: 1.56 mg/kg/injection, schedule: Q04DX002 (ip), vehicle: saline with Tween-80): 96 % of control
T/C (dose: 1.56 mg/kg/injection, schedule: Q04DX002 (ip), vehicle: saline): 101 % of control

Cc1c[n+]([O-])cc(C)c1[N+](=O)[O-]
T/C [2]: 100 % of control
T/C [3]: 90 % of control
T/C [4]: 90 % of control
T/C [5]: 100 % of control
T/C (dose: 400.0 mg/kg/injection, schedule: Q01DX009 (ip), vehicle: saline with Tween-80): 100 % of control

O=C(Nc1cc(Cl)ccc1C(=O)O)c1cccc(C[n+]2ccccc2)c1
T/C [8]: 111 % of control
T/C (dose: 100.0 mg/kg/injection, schedule: Q01DX005 (ip), vehicle: saline with Tween-80): 111 % of control

Cc1ccc2c(C)c3ccc4ccccc4c3c[n+]2c1
T/C (dose: 20.0 mg/kg/injection, schedule: Q04DX003 (ip), vehicle: saline): 118 % of control
T/C (dose: 40.0 mg/kg/injection, schedule: Q04DX003 (ip), vehicle: saline): 118 % of control

CC(/C=N/N=C(N)N)=N\NC(N)=S
T/C [3]: 96 % of control
T/C [4]: 116 % of control
T/C [5]: 107 % of control

NC(=S)c1ccc(N)nc1
T/C [6]: 103 % of control
T/C [7]: 110 % of control
T/C (dose: 400.0 mg/kg/injection, schedule: Q04DX003 (ip), vehicle: saline with Tween-80): 110 % of control

CNC(=N)c1ccc(NC(=N)c2ccc(NC(=N)c3ccc(NC(=N)c4ccc(C(=N)NC)cc4)cc3)cc2)cc1
T/C (dose: 6.0 mg/kg/injection, schedule: Q01DX009 (ip), vehicle: saline with Tween-80): 120 % of control
T/C (dose: 13.0 mg/kg/injection, schedule: Q01DX009 (ip), vehicle: saline with Tween-80): 166 % of control and 175 % of control
T/C (dose: 18.0 mg/kg/injection, schedule: Q04DX003 (ip), vehicle: saline with Tween-80): 100 % of control
T/C (dose: 20.0 mg/kg/injection, schedule: Q01DX009 (ip), vehicle: saline with Tween-80): 157 % of control and 165 % of control
T/C (dose: 20.0 mg/kg/injection, schedule: Q04DX003 (ip), vehicle: saline with Tween-80): 109 % of control
T/C (dose: 26.0 mg/kg/injection, schedule: Q04DX003 (ip), vehicle: saline with Tween-80): 116 % of control
T/C (dose: 30.0 mg/kg/injection, schedule: Q01DX009 (ip), vehicle: saline with Tween-80): 214 % of control
T/C (dose: 40.0 mg/kg/injection, schedule: Q04DX003 (ip), vehicle: saline with Tween-80): 154 % of control
T/C (dose: 80.0 mg/kg/injection, schedule: Q04DX003 (ip), vehicle: saline with Tween-80): 90 % of control

Cc1ccc(C[N+](C)(C)C)c2ccccc12
T/C (dose: 12.5 mg/kg/injection, schedule: Q04DX003 (ip), vehicle: saline): 107 % of control
T/C (dose: 25.0 mg/kg/injection, schedule: Q04DX003 (ip), vehicle: saline): 105 % of control
T/C (dose: 50.0 mg/kg/injection, schedule: Q04DX003 (ip), vehicle: saline): 96 % of control

CN1CCC/C(=C(/N)c2ccccc2)S1(=O)=O
T/C [3]: 104 % of control
T/C [4]: 100 % of control
T/C [5]: 104 % of control

CN(Cc1ccco1)NC(=O)C(=O)NCc1ccco1
T/C (dose: 12.5 mg/kg/injection, schedule: Q01DX005 (ip), vehicle: saline with Tween-80): 95 % of control
T/C (dose: 25.0 mg/kg/injection, schedule: Q01DX005 (ip), vehicle: saline with Tween-80): 95 % of control
T/C [8]: 88 % of control

[Cl][Rh][Cl].c1cn[nH]c1.c1cn[nH]c1.c1cn[nH]c1.c1cn[nH]c1
T/C (dose: 12.5 mg/kg/injection, schedule: Q01DX009 (ip), vehicle: Klucel (hydroxypropylcellulose) (HPC)): 114 % of control
T/C (dose: 25.0 mg/kg/injection, schedule: Q01DX009 (ip), vehicle: Klucel (hydroxypropylcellulose) (HPC)): 94 % of control

O=C(/C=C/c1ccc(OCc2ccccc2)cc1)c1ccc(F)cc1
T/C [3]: 89 % of control
T/C [4]: 98 % of control
T/C [5]: 89 % of control

CCCNC(=O)OCC#CC#CCOC(=O)NCCC
T/C [9]: 86 % of control
T/C [10]: 90 % of control
T/C [11]: 100 % of control
T/C [12]: 95 % of control
T/C [13]: 104 % of control
T/C [14]: 113 % of control

c1ccc(C2=C(c3ccccc3)C23SCCS3)cc1
T/C [9]: 113 % of control
T/C [10]: 104 % of control
T/C [11]: 95 % of control
T/C [12]: 113 % of control
T/C [13]: 86 % of control
T/C [14]: 100 % of control

C[C@H]1C(=O)O[C@@H]2CCN3CC=C(COC(=O)[C@](C)(O)[C@@]1(C)O)[C@H]23
T/C (dose: 3.13 mg/kg/injection, schedule: Q01DX010 (ip), vehicle: saline): 100 % of control
T/C (dose: 6.2 mg/kg/injection, schedule: Q01DX009 (ip), vehicle: saline): 111 % of control
T/C (dose: 6.25 mg/kg/injection, schedule: Q01DX010 (ip), vehicle: saline): 100 % of control
T/C (dose: 12.5 mg/kg/injection, schedule: Q01DX009 (ip), vehicle: saline): 122 % of control
T/C (dose: 12.5 mg/kg/injection, schedule: Q01DX009 (ip), vehicle: water): 109 % of control
T/C (dose: 12.5 mg/kg/injection, schedule: Q01DX010 (ip), vehicle: saline): 104 % of control
T/C (dose: 25.0 mg/kg/injection, schedule: Q01DX009 (ip), vehicle: water): 86 % of control
T/C (dose: 25.0 mg/kg/injection, schedule: Q01DX010 (ip), vehicle: saline): 104 % of control
T/C (dose: 50.0 mg/kg/injection, schedule: Q01DX009 (ip), vehicle: water): 118 % of control
T/C (dose: 75.0 mg/kg/injection, schedule: Q01DX009 (ip), vehicle: water): 104 % of control

Cn1c([N+](=O)[O-])cnc1CSC(=S)N1CCN(C(=S)SCc2ncc([N+](=O)[O-])n2C)CC1
T/C [2]: 106 % of control
T/C [3]: 103 % of control
T/C [4]: 103 % of control

CC(C)CC(NC(=O)C(CSCc1ccccc1)NC(=O)OCc1ccccc1)C(=O)OCc1ccccc1 (stereo unspecified) (Cbz-Cys(Bn)-Leu-OBn; configuration not given here)
T/C (dose: 100.0 mg/kg/injection, schedule: Q04DX003 (ip), vehicle: gum acacia): 104 % of control
T/C (dose: 200.0 mg/kg/injection, schedule: Q04DX003 (ip), vehicle: gum acacia): 100 % of control
T/C (dose: 400.0 mg/kg/injection, schedule: Q04DX003 (ip), vehicle: gum acacia): 100 % of control

CCOC(=O)C(Cc1ccccc1)P(=O)(OCC)OCC (stereo unspecified)
T/C [4]: 109 % of control
T/C [5]: 104 % of control
